target: T1, human CaMKIIδ (Homo sapiens, UniProt Q13557); assay: Evaluation of in vitro CaMKII inhibitory activity (binding assay, TR-FRET); details: human CaMKIIδ, TR-FRET binding assay; class symbols A/B/C; read-out: Act (CaMKII inhibitory activity, binding assay)
T1 construct: Full-length, glutathione-S-transferase(GST)-tagged, human CaMKIIδ was purchased from Carna Biosciences; purchased Carna Biosciences (CaMKIIδ); Wako Pure Chemical Industries (calmodulin) 02-111
How it was run: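 Inhibitors, in eight concentrations of 4-fold dilution, were incubated 1 h at room temperature with a protein–fluorescent probe premix preformed 30 min on ice, containing calmodulin and terbium anti-GST antibody. Displacement read by TR-FRET in duplicate; IC50 by logistic fitting.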

Row | SMILES | IC50 [nM]
1 | C[C@@H](Cn1cnnn1)Oc1cc(-c2ccc3ncn(-c4ccccn4)c3n2)ccc1F [compound 153, 2-[5-(4-fluoro-3-{[(2S)-1-(1H-tetrazol-1-yl)propan-2-yl]oxy}phenyl)-3H-imidazo[4,5-b]pyridin-3-yl]pyridine] | < 10
2 | CNC(=O)c1ccc(C#N)c(-c2cnc3ccc(-c4ccc(F)c(O[C@@H](C)Cn5cnnn5)c4)nn23)c1 [compound 168] | < 10
3 | COCCCOC(=O)c1c(-c2cnc3ccc(-c4ccc(F)c(O[C@@H](C)Cn5cnnn5)c4)nn23)cnn1CCCOC [compound 224] | > 100
4 | C[C@@H](Cn1cnnn1)Oc1cc(-c2ccc3ncc(-c4cn(CC(=O)O)nc4C#N)n3n2)ccc1F [compound 125] | 10 to 100
5 | C[C@@H](Cn1cnnn1)Oc1cccc(-c2ccn3ncc(-c4cccc(C(=O)NCCc5ccccn5)c4)c3n2)c1 [compound 106] | < 10
6 | C[C@@H](Cn1cnnn1)Oc1cccc(-c2ccn3ncc(-c4cccc(C(=O)Nc5ccccn5)c4)c3n2)c1 [compound 83] | < 10
7 | C[C@@H](Cn1cnnn1)Oc1cc(-c2ccn3ncc(-c4ccccc4C(F)(F)F)c3n2)ccc1F [compound 129] | > 100
8 | C[C@@H](Cn1cnnn1)Oc1cccc(-c2ccn3ncc(-c4cccc(C(=O)Nc5ccccc5)c4)c3n2)c1 [compound 81] | 10 to 100
9 | C[C@@H](Cn1cnnn1)Oc1cncc(-c2ccc3ncc(-c4nccc(C(F)F)c4C#N)n3n2)n1 [compound 471] | > 100
10 | C[C@@H](Cn1cnnn1)Oc1cc(-c2ccc3ncc(-c4cccc(OCC(N)=O)c4C#N)n3n2)ccc1F [compound 202] | < 10
11 | C[C@@H](Cn1cnnn1)Oc1cccc(-c2ccn3ncc(-c4cccc(C(=O)N5CCn6ccnc6C5)c4)c3n2)c1 [compound 109] | 10 to 100
12 | C[C@@H](Cn1cnnn1)Oc1cccc(-c2ccn3ncc(-c4cccc(C(=O)NCc5ccncc5)c4)c3n2)c1 [compound 93] | < 10
13 | C[C@@H](Cn1cnnn1)Oc1cc(-c2ccc3ncc(-c4cccc(OCCC5CCNCC5)c4C#N)n3n2)ccc1F [compound 208] | < 10
14 | C[C@@H](Cn1cnnn1)Oc1cccc(-c2ccn3ncc(-c4cccc(C(=O)Nc5cnn(C)c5)c4)c3n2)c1 [compound 85] | < 10
15 | C[C@@H](Cn1cnnn1)Oc1cc(-c2ccc3ncc(-c4cccs4)n3n2)ccc1F [compound 60] | < 10
16 | C#Cc1ccccc1-c1cnc2ccc(-c3ccc(F)c(O[C@@H](C)Cn4cnnn4)c3)nn12 [compound 183] | < 10
17 | C[C@@H](Cn1cnnn1)Oc1cc(-c2ccn3ncc(-c4cnn(CCN5CCOCC5)c4)c3n2)ccc1F [compound 145] | 10 to 100

Row | SMILES | IC50 [nM]
18 | CCOC(=O)c1ccc(C#N)c(-c2cnc3ccc(-c4ccc(F)c(O[C@@H](C)Cn5cnnn5)c4)nn23)c1 [compound 146] | < 10
19 | COCCOc1ccc(-c2cnn3ccc(-c4ccc(F)c(O[C@@H](C)Cn5cnnn5)c4)nc23)cc1 [compound 44] | 10 to 100
20 | COC(=O)c1cccc(-n2cnc3ccc(-c4ccc(F)c(O[C@@H](C)Cn5cnnn5)c4)nc32)n1 [compound 188] | < 10
21 | C[C@@H](Cn1cnnn1)Oc1cc(-c2ccc3ncn(-c4cnn(C(=O)OC(C)(C)C)c4)c3n2)ccc1F [compound 118] | < 10
22 | COCCCNC(=O)c1cccc(-c2cnn3ccc(-c4ccc(F)c(O[C@@H](C)Cn5cnnn5)c4)nc23)c1 [compound 9] | < 10
23 | COc1ncccc1-c1cnn2ccc(-c3ccc(F)c(O[C@@H](C)Cn4cnnn4)c3)nc12 [compound 166] | < 10
24 | CC(=O)NC1CCN(C(=O)c2cccc(-c3cnn4ccc(-c5cccc(O[C@@H](C)Cn6cnnn6)c5)nc34)c2)CC1 [compound 73] | 10 to 100
25 | C[C@@H](Cn1cnnn1)Oc1cccc(-c2ccn3ncc(-c4cccc(C(=O)N5CCC(C)(O)CC5)c4)c3n2)c1 [compound 99] | 10 to 100
26 | C[C@@H](Cn1cnnn1)Oc1cc(-c2ccc3ncn(-c4cccc(C#N)n4)c3n2)ccc1F [compound 159] | < 10
27 | COC(=O)c1cccc(-n2cnc3ccc(-c4ccc(F)c(O[C@@H](C)Cn5cnnn5)c4)nc32)c1C#N [compound 179] | 10 to 100
28 | C[C@@H](Cn1cnnn1)Oc1cc(-c2ccn3ncc(-c4cccc(C(F)F)c4)c3n2)ccc1F [compound 131] | < 10
29 | COC(=O)c1cccc(-c2cnn3ccc(-c4ccc(C#N)c(O[C@@H](C)Cn5cnnn5)c4)nc23)c1 [compound 2, methyl 3-[5-(4-cyano-3-{[(2S)-1-(1H-tetrazol-1-yl)propan-2-yl]oxy}phenyl)pyrazolo[1,5-a]pyrimidin-3-yl]benzoate] | > 100
30 | C[C@@H](Cn1cnnn1)Oc1cc(-c2ccc3ncc(-c4cc(C(=O)NCCN5CCOCC5)ccc4C#N)n3n2)ccc1F [compound 148] | 10 to 100
31 | C[C@@H](Cn1cnnn1)Oc1cc(-c2ccc3ncc(-c4cccc(N)c4C#N)n3n2)ccc1F [compound 181] | < 10
32 | [2H]C([2H])([2H])Oc1ccnc(-c2cnc3ccc(-c4ccc(F)c(O[C@@H](C)Cn5cnnn5)c4)nn23)c1C#N [Example 473, 2-[6-(4-fluoro-3-{[(2S)-1-(1H-tetrazol-1-yl)propan-2-yl]oxy}phenyl)imidazo[1,2-b]pyridazin-3-yl]-4-(methoxy-d3)pyridine-3-carbonitrile] | < 10
33 | C[C@@H](Cn1cnnn1)Oc1cc(-c2ccc3ncn(-c4ccc[nH]c4=O)c3n2)ccc1F [compound 175] | 10 to 100

same assay, conditions: in vitro CaMKII inhibitory activity (binding assay), human CaMKIIδ; read-out: Act

Row | SMILES | IC50 [nM]
34 | C[C@@H](Cn1cnnn1)Oc1cccc(-c2ccc3ncc(-c4[nH]c(=O)ccc4C#N)n3n2)c1 [compound 364] | < 10
35 | COc1ccnc(-c2cnn3ccc(-c4cccc(O[C@@H](C)Cn5cnnn5)n4)nc23)c1C#N [compound 430] | > 100
36 | C[C@@H](Cn1cnnn1)Oc1cc(-c2ccc3ncc(-c4c(C#N)ccc[n+]4[O-])n3n2)ccc1F [compound 297] | 10 to 100
37 | C[C@@H](Cn1cnnn1)Oc1cccc(-c2ccc3nnc(-c4cc(F)ccc4C#N)n3n2)c1 [compound 387] | > 100
38 | C[C@@H](Cn1cnnn1)Oc1cccc(-c2ccn3ncc(-c4cnccc4C(N)=O)c3n2)c1 [compound 309] | 10 to 100
39 | C[C@@H](Cn1cnnn1)Oc1cc(-c2ccn3ncc(-c4cc(F)ccc4C#N)c3n2)ccn1 [compound 319] | < 10
40 | C[C@@H](Cn1cnnn1)Oc1cccc(-c2ccc3ncc(-c4cccnc4C#N)n3n2)c1 [compound 257, 3-[6-(3-{[(2S)-1-(1H-tetrazol-1-yl)propan-2-yl]oxy}phenyl)imidazo[1,2-b]pyridazin-3-yl]pyridine-2-carbonitrile] | < 10
41 | C[C@@H](Cn1cnnn1)Oc1cccc(-c2ccc3ncc(-c4nc[nH]c(=O)c4C#N)n3n2)c1 [compound 381] | < 10
42 | C[C@@H](Cn1cnnn1)Oc1cc(-c2ccc3ncc(-c4cc(=O)[nH]cc4C#N)n3n2)ccc1F [compound 241] | < 10
43 | C[C@@H](Cn1cnnn1)Oc1cc(-c2ccn3ncc(-c4ncccc4C#N)c3n2)ccc1F [compound 295] | < 10
44 | C[C@@H](Cn1cnnn1)Oc1cccc(-c2ccn3ncc(-c4cc(F)ccc4C#N)c3n2)n1 [Example 416, 4-fluoro-2-[5-(6-{[(2S)-1-(1H-tetrazol-1-yl)propan-2-yl]oxy}pyridin-2-yl)pyrazolo[1,5-a]pyrimidin-3-yl]benzonitrile] | < 10
45 | COc1ccnc(-c2cnc3ccc(-c4cccc(O[C@@H](C)Cn5cnnn5)n4)nn23)c1C#N [compound 414] | 10 to 100
46 | C[C@@H](Cn1cnnn1)Oc1cccc(-c2ccc3ncc(-c4cc(F)cc(F)c4C#N)n3n2)n1 [compound 421] | < 10
47 | COc1cc(F)cc(-n2cnc3ccc(-c4cc(O[C@@H](C)Cn5cnnn5)ccn4)nc32)c1C#N [compound 411] | < 10
48 | C[C@@H](Cn1cnnn1)Oc1cccc(-c2ccc3ncc(-c4cc(F)cn(C)c4=O)n3n2)c1 [compound 331] | < 10
49 | C[C@@H](Cn1cnnn1)Oc1nc(-c2ccc3ncc(-c4cc(F)ccc4C#N)n3n2)ccc1F [compound 449] | < 10
50 | CCOc1ncnc(-c2cnc3ccc(-c4cccc(O[C@@H](C)Cn5cnnn5)c4)nn23)c1C#N [compound 365] | < 10
51 | COc1cc(F)cc(-c2cnc3ccc(-c4cncc(O[C@@H](C)Cn5cnnn5)n4)nn23)c1C#N [Example 392, 4-fluoro-2-methoxy-6-[6-(6-{[(2S)-1-(1H-tetrazol-1-yl)propan-2-yl]oxy}pyrazin-2-yl)imidazo[1,2-b]pyridazin-3-yl]benzonitrile] | < 10
52 | C[C@@H](Cn1cnnn1)Oc1cccc(-c2ccc3ncc(-c4ncccc4C#N)n3n2)c1 [Example 271, 2-[6-(3-{[(2S)-1-(1H-tetrazol-1-yl)propan-2-yl]oxy}phenyl)imidazo[1,2-b]pyridazin-3-yl]pyridine-3-carbonitrile] | < 10
53 | COc1cc(F)cc(-n2cnc3ccc(-c4cncc(O[C@@H](C)Cn5cnnn5)n4)nc32)c1C#N [compound 396] | < 10
54 | C[C@@H](Cn1cnnn1)Oc1cccc(-c2ccc3ncn(-c4cc(F)ccc4C#N)c3n2)c1 [Example 291, 4-fluoro-2-[5-(3-{[(2S)-1-(1H-tetrazol-1-yl)propan-2-yl]oxy}phenyl)-3H-imidazo[4,5-b]pyridin-3-yl]benzonitrile] | < 10
55 | C[C@@H](Cn1cnnn1)Oc1cccc(-c2ccc3ncc(-c4ncnc(N)c4C#N)n3n2)c1 [compound 394] | 10 to 100
56 | C[C@@H](Cn1cnnn1)Oc1cccc(-c2ccc3nnc(-c4ccccc4C#N)n3n2)c1 [compound 373] | > 100
57 | C[C@@H](Cn1cnnn1)Oc1cccc(-c2ccc3ncc(-c4nccc(C(F)F)c4C#N)n3n2)n1 [compound 457] | 10 to 100
58 | CC(=O)c1ccc(C#N)c(-c2cnc3ccc(-c4cccc(O[C@@H](C)Cn5cnnn5)c4)nn23)n1 [compound 389] | 10 to 100
59 | COc1cc(F)c(C#N)c(-c2cnc3ccc(-c4cccc(O[C@@H](C)Cn5cnnn5)n4)nn23)c1 [compound 408] | < 10

From US12528816B2, “Substituted imidazo [1,2-b] pyridazines and [1, 2, 4] triazolo [ 4,3-b] pyridazines as camkii inhibitors” (Cardurion Pharmaceuticals, INC., priority 2020, dated 2026)
